From patent US12077503B2, “Substituted cyclic amides and their use as herbicides” (FMC CORPORATION, priority 2015, dated 2024)

How the values were obtained:
Type in all cases: in vivo
[1] = tested on: barnyardgrass (Echinochloa crus-galli); test: Test B flooded paddy test; settings: Echinochloa crus-galli, 250 g ai/ha, Flood; 0 to 100 scale where 0 is no effect and 100 is complete control; read-out: Barnyardgrass plant response rating
In short: (§1)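 Greenhouse paddy pots with 2-leaf stage plants received compound by direct addition to floodwater 3 cm deep, kept at that level. Scored visually at 13–15 d versus controls (0 no effect; 100 complete control).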

[2] = tested on: ducksalad (Heteranthera limosa); test: Test B flooded paddy test; settings: Heteranthera limosa, 250 g ai/ha, Flood; 0 to 100 scale where 0 is no effect and 100 is complete control; read-out: Ducksalad plant response rating
In short: as §1

rice (Oryra sativa) = test: Test B flooded paddy test; settings: Oryza sativa, 250 g ai/ha, Flood; 0 to 100 scale where 0 is no effect and 100 is complete control; read-out: Rice plant response rating
In short: as §1

[3] = tested on: sedge, umbrella (small-flower umbrella sedge, Cyperus difformis); test: Test B flooded paddy test; settings: Cyperus difformis, 250 g ai/ha, Flood; 0 to 100 scale where 0 is no effect and 100 is complete control; read-out: Sedge, Umbrella plant response rating
In short: as §1

[4] = tested on: pigweed (Amaranthus retroflexus); test: Test A preemergence; settings: Amaranthus retroflexus, pre-emergence, 240 h
[5] = tested on: ryegrass, Italian (Italian ryegrass, Lolium multiflorum); test: Test A preemergence; settings: Lolium multiflorum, pre-emergence, 240 h
In short: (§2)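 Preemergence directed soil spray on seeded pots, or postemergence application to plants 2–10 cm, one- to two-leaf. Solvent mixture non-phytotoxic, with surfactant. Scored ~10 d later, visually, 0–100 vs untreated.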

[6] = tested on: giant foxtail (Setaria faberii); test: Test A preemergence; settings: Setaria faberi, pre-emergence, 240 h
In short: as §2

[7] = tested on: barnyardgrass (Echinochloa crus-galli); test: Test A preemergence; settings: Echinochloa crus-galli, pre-emergence, 240 h
In short: as §2

Kochia (Kochia scoparia) [8] = test: Test A preemergence; settings: Bassia scoparia, pre-emergence, 240 h
In short: as §2

[9] = tested on: ragweed (common ragweed, Ambrosia elatior); test: Test A preemergence; settings: Ambrosia artemisiifolia, pre-emergence, 240 h
In short: as §2

[10] = tested on: pigweed (Amaranthus retroflexus); test: Test A postemergence; settings: Amaranthus retroflexus, post-emergence, 240 h, read-out: Plant response rating, Pigweed
In short: as §2

[11] = tested on: ryegrass, Italian (Italian ryegrass, Lolium multiflorum); test: Test A postemergence; settings: Lolium multiflorum, post-emergence, 240 h, read-out: Plant response rating, Ryegrass, Italian
In short: as §2

[12] = tested on: giant foxtail (Setaria faberii); test: Test A postemergence; settings: Setaria faberi, post-emergence, 240 h, read-out: Plant response rating, Foxtail, Giant
In short: as §2

[13] = tested on: barnyardgrass (Echinochloa crus-galli); test: Test A postemergence; settings: Echinochloa crus-galli, post-emergence, 240 h, read-out: Plant response rating, Barnyardgrass
In short: as §2

[14] = tested on: wheat (Triticum aestivum); test: Test A postemergence; settings: Triticum aestivum, post-emergence, 240 h, read-out: Plant response rating, Wheat
In short: as §2

[15] = tested on: Galium (catchweed bedstraw, Galium aparine); test: Test A postemergence; settings: Galium, post-emergence, 240 h, read-out: Plant response rating, Galium
In short: as §2

corn (Zea mays) = test: Test A postemergence; settings: Zea mays, post-emergence, 240 h
In short: as §2

[16] = tested on: blackgrass (Alopecurus myosuroides); test: Test A postemergence; settings: Alopecurus myosuroides, post-emergence, 240 h, read-out: Plant response rating, Blackgrass
In short: as §2

Kochia (Kochia scoparia) [17] = test: Test A postemergence; settings: Bassia scoparia, post-emergence, 240 h, read-out: Plant response rating, Kochia
In short: as §2

[18] = tested on: ragweed (common ragweed, Ambrosia elatior); test: Test A postemergence; settings: Ambrosia artemisiifolia, post-emergence, 240 h, read-out: Plant response rating, Ragweed
In short: as §2

[19] = 125 g ai/ha, Postemergence, visual injury after approximately 10 d, 0 to 100 scale where 0 is no effect and 100 is complete control
[20] = 500 g ai/ha, postemergence, visual injury, 0 to 100 scale (0 no effect, 100 complete control), approx. 10 d

Q: CN1CC[C@H](c2ccc(OC(F)(F)F)cc2)[C@@H](C(=O)Nc2ccc(F)c(F)c2F)C1=O [Compound 1000] was tested. Which pest or weed control at 250 g/ha [1] did it give?
A: 0%

Q: What about the pest or weed control at 250 g/ha [2] of the same compound?
A: 90%

Q: And the pest or weed control at 250 g/ha (rice (Oryra sativa))?
A: 0%

Q: What about the pest or weed control at 250 g/ha [3] of the same compound?
A: 0%

Q: What about the pest or weed control at 125 g/ha ([4]; 125 g ai/ha, Preemergence, visual injury rating after approximately 10 d, read-out: Pigweed plant response rating (0 to 100 scale, 0 is no effect, 100 is complete control)) of the same compound?
A: 20%

Q: What about the pest or weed control at 500 g/ha ([4]; 500 g ai/ha, preemergence, visual injury rating about 10 d after treatment, 0 to 100 scale (0 no effect, 100 complete control), read-out: Pigweed plant response rating) of the same compound?
A: 40%

Q: What about the pest or weed control at 125 g/ha ([5]; 125 g ai/ha, Preemergence, visual injury rating after approximately 10 d, read-out: Ryegrass, Italian plant response rating (0 to 100 scale, 0 is no effect, 100 is complete control)) of the same compound?
A: 0%

Q: What about the pest or weed control at 500 g/ha ([5]; 500 g ai/ha, preemergence, visual injury rating about 10 d after treatment, 0 to 100 scale (0 no effect, 100 complete control), read-out: Ryegrass, Italian plant response rating) of the same compound?
A: 20%

Q: What about the pest or weed control at 125 g/ha ([6]; 125 g ai/ha, Preemergence, visual injury rating after approximately 10 d, read-out: Foxtail, Giant plant response rating (0 to 100 scale, 0 is no effect, 100 is complete control)) of the same compound?
A: 70%

Q: What about the pest or weed control at 500 g/ha ([6]; 500 g ai/ha, preemergence, visual injury rating about 10 d after treatment, 0 to 100 scale (0 no effect, 100 complete control), read-out: Foxtail, Giant plant response rating) of the same compound?
A: 90%

Q: And the pest or weed control at 125 g/ha ([7]; 125 g ai/ha, Preemergence, visual injury rating after approximately 10 d, read-out: Barnyardgrass plant response rating (0 to 100 scale, 0 is no effect, 100 is complete control))?
A: 0%

Q: And the pest or weed control at 500 g/ha ([7]; 500 g ai/ha, preemergence, visual injury rating about 10 d after treatment, 0 to 100 scale (0 no effect, 100 complete control), read-out: Barnyardgrass plant response rating)?
A: 60%

Q: And the pest or weed control at 125 g/ha (Kochia (Kochia scoparia) [8]; 125 g ai/ha, Preemergence, visual injury rating after approximately 10 d, read-out: Kochia plant response rating (0 to 100 scale, 0 is no effect, 100 is complete control))?
A: 0%

Q: And the pest or weed control at 500 g/ha (Kochia (Kochia scoparia) [8]; 500 g ai/ha, preemergence, visual injury rating about 10 d after treatment, 0 to 100 scale (0 no effect, 100 complete control), read-out: Kochia plant response rating)?
A: 0%

Q: What about the pest or weed control at 125 g/ha ([9]; 125 g ai/ha, Preemergence, visual injury rating after approximately 10 d, read-out: Ragweed plant response rating (0 to 100 scale, 0 is no effect, 100 is complete control)) of the same compound?
A: 0%

Q: What about the pest or weed control at 500 g/ha ([9]; 500 g ai/ha, preemergence, visual injury rating about 10 d after treatment, 0 to 100 scale (0 no effect, 100 complete control), read-out: Ragweed plant response rating) of the same compound?
A: 0%

Q: And the pest or weed control at 125 g/ha [10, 19]?
A: 0%

Q: And the pest or weed control at 500 g/ha [10, 20]?
A: 0%

Q: And the pest or weed control at 125 g/ha [11, 19]?
A: 0%

Q: What about the pest or weed control at 500 g/ha [11, 20] of the same compound?
A: 0%

Q: And the pest or weed control at 125 g/ha [12, 19]?
A: 0%

Q: And the pest or weed control at 500 g/ha [12, 20]?
A: 50%

Q: And the pest or weed control at 125 g/ha [13, 19]?
A: 60%

Q: What about the pest or weed control at 500 g/ha [13, 20] of the same compound?
A: 100%

Q: What about the plant injury at 125 g/ha [14, 19] of the same compound?
A: 0%

Q: What about the plant injury at 500 g/ha [14, 20] of the same compound?
A: 0%

Q: And the pest or weed control at 125 g/ha [15, 19]?
A: 0%

Q: And the pest or weed control at 500 g/ha [15, 20]?
A: 0%

Q: And the Corn plant response rating (crop injury, 0 = no effect, 100 = complete kill) at 125 g/ha (corn (Zea mays); [19])?
A: 0%

Q: What about the Corn plant response rating (crop injury, 0 = no effect, 100 = complete kill) at 500 g/ha (corn (Zea mays); [20]) of the same compound?
A: 20%

Q: And the pest or weed control at 125 g/ha [16, 19]?
A: 0%

Q: And the pest or weed control at 500 g/ha [16, 20]?
A: 0%

Q: And the pest or weed control at 125 g/ha (Kochia (Kochia scoparia) [17]; [19])?
A: 40%

Q: What about the pest or weed control at 500 g/ha (Kochia (Kochia scoparia) [17]; [20]) of the same compound?
A: 40%

Q: What about the pest or weed control at 125 g/ha [18, 19] of the same compound?
A: 0%

Q: What about the pest or weed control at 500 g/ha [18, 20] of the same compound?
A: 0%
